The target in one series is T1, 5-HT1A (Rattus norvegicus, UniProt P19327).
T1 construct: from tissue; host or cells: male Wistar rat frontal cortex, membrane fraction
T1 sequence (P19327 1-422): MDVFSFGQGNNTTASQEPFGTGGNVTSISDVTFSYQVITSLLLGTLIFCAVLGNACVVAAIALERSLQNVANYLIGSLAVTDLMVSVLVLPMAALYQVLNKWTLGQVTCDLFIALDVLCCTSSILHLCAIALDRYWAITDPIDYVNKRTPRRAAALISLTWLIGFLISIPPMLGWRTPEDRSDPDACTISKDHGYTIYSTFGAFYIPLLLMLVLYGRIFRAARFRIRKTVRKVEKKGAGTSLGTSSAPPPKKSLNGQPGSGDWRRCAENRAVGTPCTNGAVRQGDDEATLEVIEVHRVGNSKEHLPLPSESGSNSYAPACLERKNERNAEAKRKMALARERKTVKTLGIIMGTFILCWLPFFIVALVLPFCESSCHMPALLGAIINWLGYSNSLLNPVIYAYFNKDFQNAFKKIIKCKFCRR
Kind of series: Receptor binding assay, 5-HT1A (3H-8-OH-DPAT). Details: species or system male Wistar rat. To be noted: 3H-8-OH-DPAT 0.7 nM, frontal cortex. How it is done:
(§1) The different brain regions of 120-200 g male Wistar rats were used for receptor binding assays except for 5-HT2c receptors where binding studies were performed on porcine choroid plexus. Protein content of the membrane fraction was determined as described by Lowry [Lowry, O. H., Rosebrough, M. J., Farr, A. L. and Randall, R. Y.: J. Biol. Chem., 193: 265-275, 1951].
frontal 5-HT Peroutka, S.
0.7 nM cortex (10 μM) J. J.

Another series has as its target T2, 5-HT2A (Rattus norvegicus, UniProt P14842).
T2 construct: from tissue; host or cells: male Wistar rat frontal cortex, membrane fraction
Kind of series: Receptor binding assay, 5-HT2A (3H-ketanserin). The arrangement: species or system male Wistar rat. To be noted: 3H-ketanserin 1.0 nM, frontal cortex. The method, then:
as §1
5-HT2A ^3 H-ketanserin frontal cyprohepta- Leysen, J. E.
1.0 nM cortex dine et al.: Mol.

The target of series [1] is T3, 5-HT2C (Sus scrofa, UniProt K7GSR7).
T3 construct: from tissue; host or cells: porcine choroid plexus
T3 sequence (K7GSR7 1-457): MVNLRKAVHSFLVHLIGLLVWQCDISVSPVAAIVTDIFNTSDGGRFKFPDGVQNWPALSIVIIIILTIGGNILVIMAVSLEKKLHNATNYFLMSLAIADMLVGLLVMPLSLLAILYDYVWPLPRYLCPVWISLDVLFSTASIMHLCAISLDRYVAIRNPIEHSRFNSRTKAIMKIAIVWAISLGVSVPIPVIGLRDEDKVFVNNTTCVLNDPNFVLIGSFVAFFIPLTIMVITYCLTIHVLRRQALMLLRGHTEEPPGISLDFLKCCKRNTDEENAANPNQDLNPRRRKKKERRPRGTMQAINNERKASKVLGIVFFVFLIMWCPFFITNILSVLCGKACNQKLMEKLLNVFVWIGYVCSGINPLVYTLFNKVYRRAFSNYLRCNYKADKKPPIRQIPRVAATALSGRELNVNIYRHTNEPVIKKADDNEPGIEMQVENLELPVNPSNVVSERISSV
Kind of series: biochemical. The series is classed as binding, porcine. The method, then:
as §1
(§2) 5-HT2C ^3 H-mesulergin choroid mianserin Pazos, A. et
(§3) 1.0 nM plexus (1 μM) al. Eur. J.

The subject of series [2] is 5-HT2C. The experiment in a line: biochemical. To be noted: among 5-HT receptors. It is filed as binding, porcine. How it is done:
as §1, §2, §3

The target in another series is T4, D1 (Rattus norvegicus, UniProt P18901).
T4 construct: from tissue; host or cells: male Wistar rat striatum, membrane fraction
T4 sequence (P18901 whole entry): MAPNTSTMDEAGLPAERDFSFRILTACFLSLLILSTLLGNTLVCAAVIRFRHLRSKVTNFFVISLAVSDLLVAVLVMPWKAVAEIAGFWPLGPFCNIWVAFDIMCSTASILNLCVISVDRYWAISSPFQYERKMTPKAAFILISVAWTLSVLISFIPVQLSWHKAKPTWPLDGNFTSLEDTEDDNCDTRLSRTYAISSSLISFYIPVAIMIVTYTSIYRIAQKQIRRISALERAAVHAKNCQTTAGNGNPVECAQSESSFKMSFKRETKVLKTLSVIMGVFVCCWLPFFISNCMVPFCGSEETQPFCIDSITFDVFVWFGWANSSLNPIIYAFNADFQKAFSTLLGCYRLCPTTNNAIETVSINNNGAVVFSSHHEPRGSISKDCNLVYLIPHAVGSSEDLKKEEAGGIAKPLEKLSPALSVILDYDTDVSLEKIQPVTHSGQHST
The experiment in a line: Receptor binding assay, D1 (3H-SCH 23390). To be noted: 3H-SCH 23390 0.78 Nm, striatum. Details: species or system male Wistar rat. How it is done:
as §1
D1 ^3 H-SCH 23390 striatum cis- Hietala J. et
0.78 Nm flupentixol al., Neurosci.

The target in the next series is T5, D2 (Rattus norvegicus, UniProt P61169).
T5 construct: from tissue; host or cells: male Wistar rat striatum, membrane fraction
T5 sequence (P61169 whole entry): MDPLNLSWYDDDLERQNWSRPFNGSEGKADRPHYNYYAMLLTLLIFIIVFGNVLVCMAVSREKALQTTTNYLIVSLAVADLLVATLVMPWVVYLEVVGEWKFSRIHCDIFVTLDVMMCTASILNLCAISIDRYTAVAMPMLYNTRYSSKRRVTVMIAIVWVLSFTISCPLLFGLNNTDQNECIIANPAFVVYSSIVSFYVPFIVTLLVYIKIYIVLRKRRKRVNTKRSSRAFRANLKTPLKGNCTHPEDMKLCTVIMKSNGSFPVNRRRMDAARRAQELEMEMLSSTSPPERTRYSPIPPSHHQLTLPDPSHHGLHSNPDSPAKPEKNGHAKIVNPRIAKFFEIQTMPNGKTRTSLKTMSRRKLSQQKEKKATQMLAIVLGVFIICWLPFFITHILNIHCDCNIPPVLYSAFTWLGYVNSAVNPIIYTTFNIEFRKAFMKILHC
Kind of series: Receptor binding assay, D2 (3H-spiperone). Details: species or system male Wistar rat. Conditions: 3H-spiperone 0.5 nM, striatum. How it is done: as §1
D2 ^3 H-spiperone striatum butaclamol Leff, S. et al.,

The next series concerns the target T6, Sigma (Rattus norvegicus, UniProt Q9R0C9).
T6 construct: from tissue; host or cells: male Wistar rat cerebellum, membrane fraction
The experiment in a line: Receptor binding assay, Sigma (3H-pentazocine). The arrangement: species or system male Wistar rat. Conditions: for pKi: Sigma, 3H-pentazocine 3.0 nM, cerebellum. How it is done:
as §1
Sigma ^3 H-pentazocine cerebellum haloperidol Costa B. R. et
3.0 nM (10 μM) al., Febs Lett.,

The next series in a line: Elevated plus-maze test. It is filed as in vivo, male Sprague-Dawley rats. To be noted: for minimal effective dose: Rattus norvegicus, 1 h, treated 60 minutes prior to the test, based on times spent in the open arms, read-out: MED (minimal effective dose), elevated plus maze; for effect in the elevated plus maze test (in words): rat, in vivo. The method, then: The elevated plus-maze consisted of two open and two 40 cm wall enclosed arms of the same size (50×15 cm) arranged in the shape of a cross. The arms of the same type were opposite to each other. The junction of the four arms forms a central square area (15×15 cm). The apparatus is made of wooden material elevated to a height of 50 cm from the floor and illuminated by a dim light from above.
Male Sprague-Dawley rats weighing 220-260 g were treated with the test or reference compounds 60 minutes prior to the test. They were then placed onto the central square area and were subjected to the test for 5 minutes. The following parameters were determined:
Time spent in the open arms;
Time spent in the closed arms;
Number of entries into the open arms;
Number of entries into the closed arms.
A compound was considered to be effective when significant increase was found either in the time spent in the open arms or in the number of entries into the open arms when compared to the control animals. Minimum Effective Doses (MED) were determined based on the times spent in the open arms for each compound examined (Table II) [Pelow et al., J. Neurosci. Methods, 14: 149-169, 1985].

Series [3] is described as follows: Inhibition of mCPP induced anxiety (light-dark apparatus). The series is classed as in vivo, male Wistar rats. Conditions: for minimal effective dose: Rattus norvegicus, ip, treated twenty minutes before mCPP s.c., read-out: MED (minimal effective dose), inhibition of mCPP induced anxiety; for effect on mCPP induced anxiety (in words): rat model, Compound A up to 3.0 mg/kg i.p. How it is done:
The tests were carried out on male Wistar rats weighing 160-220 g according to Kennett [Kennett, G. A., Whitton, P., Shah, K. and Curzon, G. Eur. J. Pharmacol., 164: 445-454, 1989.]. The animals were treated either with the test compound or with vehiculum (0.4% methyl cellulose solution). Twenty minutes later either mCPP (m-chlorophenyl-piperazin) or physiological saline was administered subcutaneously. The animals were kept in the dark for additional 20 minutes, then they were placed into the light-dark apparatus (Omnitech, Digiscan, Model RXYZCM16) and their motor activity was recorded for five minutes. The testbox consisted of one dark and one lit compartment of the same size (39×20×29 cm) with an 8×8 gate providing free passage for the animals between the two compartments. The lit area was illuminated by a 40 W red light bulb 30 cm above the floor. Motor activity was recorded as the number of interruptions of the infrared light beams (16 beams 2 cm and 16 beams 8 cm above the floor). The number of crossing in the lit compartment was considered as the measure of antagonistic effect on mCPP induced anxiety. Data were statistically analyzed by one way ANOVA followed by Dunnet's t-test.

Series [4] in a line: Inhibition of spontaneous motor activity. The series is classed as in vivo, mice. Conditions: for ED50: Mus musculus, 1 h, treated 60 minutes prior to the test, ID50 by linear regression analysis. The method, then: Inhibition of Spontaneous Motor Activity
Spontaneous motor activity was measured as described earlier [Borsy et al., Arch. Int. Pharmacodyn. 124: 1-, 1960.] in a 10 box apparatus (Dews) 3--3 mice in each compartment. Mice were treated either with test compounds or with vehiculum 60 minutes prior to the test. The number of interruptions of the infrared light beams was counted, ID50 values were calculated by linear regression analysis (Table IV).

Another series can be described thus: animal or person. It is filed as in vivo, male NMRI mice. To be noted: for ED50: Mus musculus, po, 1 h, read-out: ED50, potentiation of hexobarbital induced narcosis. How it is done:
Potentiation of Hexobarbital Induced Narcosis
Male NMRI mice weighing 20-25 g were treated p.o. with the test compound or with vehiculum in 20 ml/kg volume 60 minutes prior to the iv. injection of 40 mg/kg (10 ml/kg) hexobarbital. The sleeping animals were placed on a flat surface lying on their left side and the accurate sleeping and awakening times were recorded. The animals were considered to be awaken when they rolled up from their side.
Sleeping times 2.5 times higher than the average of the control group were considered as criterion for potentiation (cut up method), results were expressed as percent increase compared to control values, ED50 values were calculated from the dose response curves according to Litchfield-Wilcoxon.

pKi: −log10 of the molar value. A value given as a limit tells only on which side of the number the result lay.

T6 sequence (Q9R0C9 whole entry): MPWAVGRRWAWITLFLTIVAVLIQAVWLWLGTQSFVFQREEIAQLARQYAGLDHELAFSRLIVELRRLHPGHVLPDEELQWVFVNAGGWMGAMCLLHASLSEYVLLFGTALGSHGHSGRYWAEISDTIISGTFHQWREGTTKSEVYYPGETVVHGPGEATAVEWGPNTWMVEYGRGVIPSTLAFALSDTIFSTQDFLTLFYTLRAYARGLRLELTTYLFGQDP
T2 sequence (P14842 whole entry): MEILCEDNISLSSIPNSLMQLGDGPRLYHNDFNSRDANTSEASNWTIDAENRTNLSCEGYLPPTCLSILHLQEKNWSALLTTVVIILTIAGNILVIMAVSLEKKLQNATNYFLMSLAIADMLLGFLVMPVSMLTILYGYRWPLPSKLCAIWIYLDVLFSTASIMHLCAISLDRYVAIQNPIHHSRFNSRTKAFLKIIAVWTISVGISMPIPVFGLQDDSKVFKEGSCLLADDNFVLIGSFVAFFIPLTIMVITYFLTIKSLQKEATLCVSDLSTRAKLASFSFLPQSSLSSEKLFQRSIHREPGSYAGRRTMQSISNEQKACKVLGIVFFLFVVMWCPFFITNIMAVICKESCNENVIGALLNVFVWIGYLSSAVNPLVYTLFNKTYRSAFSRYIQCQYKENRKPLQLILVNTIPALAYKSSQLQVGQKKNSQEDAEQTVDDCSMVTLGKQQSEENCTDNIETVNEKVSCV

`CNCCO[C@]1(c2ccccc2)C[C@H]2CC[C@]1(C)C2(C)C` [Compound A, (1R,2S,4R)-(-)-2-phenyl-2-methylaminoethoxy-1,7,7-trimethyl-bicyclo[2.2.1]heptane-fumarate]: the pKi (in general, the negative decadic logarithm of the Ki, by convention in mol/L) at 5-HT1A was under 5.00; on 5-HT2A it was under 7.00; at 5-HT2C [1], 7.70; on D1 it was 5.00; on D2, under 7.00; on Sigma, under 7.00. Moreover, the “selectivity of binding among 5-HT receptors (in words)” value in the series with 5-HT2C [2] is listed as “binds only to 2C”. In addition, the “binding at sigma receptors (in words)” value on Sigma was “does not”. Moreover, the minimal effective dose (in general, the lowest level tested that produced the effect sought) is 1 mg/kg in the series “Elevated plus-maze test” and over 3 mg/kg in series [3]. In addition, in “Elevated plus-maze test”, the “effect in the elevated plus maze test (in words)” value is “effective in the elevated plus maze test”. Also, the “effect on mCPP induced anxiety (in words)” value in series [3] is recorded as “completely ineffective up to 3.0 mg/kg i.p”. The ED50 (as a rule, the dose at which the effect has come halfway, by size or by number of responders) amounted to 57 mg/kg in [4] and 4 mg/kg in “animal or person”. Also, the “inhibition of spontaneous motor activity (in words)” value in series [4] (sedato-hypnotic side effect, compared to Compound B) is “inhibited the spontaneous motor activity in higher doses only”. For the same molecule, the “potentiation of hexobarbital induced narcosis (in words)” value in “animal or person” (mouse, in vivo) was “potentiated the hexobarbital induced narcosis to a lesser extent”.

`CN(C)CCO[C@]1(c2ccccc2)C[C@H]2CC[C@]1(C)C2(C)C` [Compound B, (1R,2S,4R)-(-)-2-phenyl-2-dimethylaminoethoxy-1,7,7-trimethyl-bicyclo[2.2.1]heptane-fumarate, reference compound]: the pKi is under 5.00 at 5-HT1A; 7.46 at 5-HT2A; 8.05 on 5-HT2C [1]; under 6.00 at D1; under 7.00 on D2; 7.28 on Sigma. Also, the “selectivity of binding among 5-HT receptors (in words)” value with 5-HT2C [2] was “not selective at 2C”. For the same molecule, the “binding at sigma receptors (in words)” value on Sigma was “shows significant binding at sigma receptors”. Moreover, the minimal effective dose in the series “Elevated plus-maze test” is over 10 mg/kg; in series [3], 0.5 mg/kg. Besides, in the series “Elevated plus-maze test”, the “effect in the elevated plus maze test (in words)” value is “did not show any effect”. Moreover, the “effect on mCPP induced anxiety (in words)” value in series [3] is reported as “significantly antagonized the mCPP induced anxiety”. Besides, the ED50 was 31.5 mg/kg in series [4] and 0.5 mg/kg in “animal or person”.

For the origin of these results see patent publication US6093747A, “1,7,7-trimethyl-bicyclo[2.2.1]heptane derivatives as anxiolytic agents having enhanced receptor specificity” (priority 1996, dated 2000).
